Source: patent US20240122930A1, “INTEGRIN INHIBITORS AND USES THEREOF IN COMBINATION WITH OTHER AGENTS” (Pliant Therapeutics, Inc., priority 2022, published 2024)
Read-outs that look alike come from different tables or passages of the source.

What was measured:
lung Col1a1 expression = assay: Precision cut lung slices, chronic bleomycin exposure, Col1a1 expression; type: cell-based, mice (C57BL/6); conditions: chronic bleomycin PCLS, 7 days culture
Protocol: Mice (C57BL/6) were administered 3 U/kg of bleomycin (Teva Pharmaceuticals; North Wales, PA) on Day 0 and 1 U/kg of bleomycin on days 14, 28, 42 and 56 via oropharyngeal aspiration while under anesthesia. At day 70, 14 days after the final bleomycin insult, precision cut lung slices were obtained. […] The lobes were then subjected to precision slicing to obtain samples for culture using a microtome (Compresstome VF-300-OZ, Precisionary; Greenville, NC). Individual slices were distributed in a multiwell culture plate and cultured for 7 days under control (DMSO) and test compound conditions. The viability of the slices over the course of culturing was confirmed by WST-1 assay of mitochondrial activity. […] Compound 5; and the small molecule ALK5 inhibitor. […] Compound 5 was run at approximate IC50 for inhibition of TGF-beta activation by αVβ6.

COL1A1 expression = assay: Precision cut lung slices from human IPF explants, COL1A1 expression; type: cell-based
Source text: Explanted lung tissue was obtained from human IPF subjects and inflated with agarose as described in the preceding examples. Biopsy cores were obtained from the agarose-inflated lung tissue. The biopsy cores were subjected to precision slicing to obtain several hundred μm thick. Individual slices were distributed in a multiwell culture plate and cultured for […] under control (DMSO) and test compound conditions. The viability of the slices over the course of culturing was confirmed by WST-1 assay of mitochondrial activity.
PCLS from 5-7 idiopathic pulmonary fibrosis (IPF) lung tissue samples were cultured for seven days with one of: DMSO; Compound 5 at 200 nM; nintedanib at 75 nM; pirfenidone at 50 μM; a combination of Compound 5 at 200 nM and nintedanib at 75 nM; a combination of Compound 5 at 200 nM and pirfenidone at 50 μM; or an ALK5 inhibitor at 1 μM. […] FIG. 6D is a bar graph showing relative expression of COL1A1 in precision cut lung slices (PCLS) from idiopathic pulmonary fibrosis (IPF) lung tissue upon exposure to Compound 5, clinical standard of care compounds nintedanib (Nin) and pirfenidone (Pirf), and an ALK5 inhibitor, all versus DMSO control.
PCLS from a single IPF lung tissue sample were cultured for seven days with Compound 5 at concentrations of 200 pM, 2 nM, 60 nM, 200 nM, and 1 μM, along with 0.1% DMSO control and an ALK5 inhibitor at 1 μM. […] COL1A1 expression is also graphed for the PCLS in the presence of 0.1% DMSO control, and an ALK5 inhibitor at 1 μM.

[1] = SAD and MAD first-in-human pharmacokinetic studies; type: in vivo; conditions: SAD study, 75 mg oral solution, healthy human subjects; for AUC(0-t): human, po, 75 mg
Protocol: Healthy human subjects (N=85) were selected for single ascending dose (SAD) and multiple ascending dose (MAD) first-in-human studies. A solution for oral administration was prepared, containing 10 mg/mL of Compound 5 in a 50:50 mixture of […], Michigan) and sterile water for irrigation. Sufficient solution was administered orally to the subjects to provide between 15 mg/dose and 75 mg/dose of Compound 5 in the SAD study and between 10 mg/dose and 40 mg/dose of Compound 5 in the MAD study. Concentrations of Compound 5 were measured in the subjects by obtaining a sample of plasma from each subject at desired intervals, and subjecting the plasma to liquid chromatography-mass spectrometry-mass spectrometry (LC-MS/MS), with quantification using a calibration curve determined from a range of solutions at standardized concentrations. The lower limit of quantitation (LLOQ) of the assay was 1 ng/mL and the calibration curve range was 1 to 500 ng/mL.

[2] = tested on: patients with idiopathic pulmonary fibrosis (IPF); assay: Phase 2a randomized, double-blind, placebo-controlled trial in IPF; type: in vivo, human
Source text: The exploratory endpoints of the trial measured changes in forced vital capacity (FVC), HRCT-based Quantitative Lung Fibrosis score (QLF), and selected biomarkers over 3 months of treatment.

[3] = tested on: participants with idiopathic pulmonary fibrosis (IPF); assay: Phase 2a clinical trial: High Resolution CT-based Quantitative Lung Fibrosis (QLF) imaging; type: in vivo, human; conditions: for Mean Percent Change in QLF Extent From Baseline to Week 12 (Mean Difference) / Median change in QLF Extent From Baseline to Week 12 / QLF extent change Baseline to Week 12: Improvers < −2%, % / QLF extent change Baseline to Week 12: Stable [−2, 2%), % / QLF extent change Baseline to Week 12: Worse > 2%, %: CT Protocol Population
Protocol: Study Design and Objectives. […] At Day 1, baseline values were collected.
[…]-IPF study design and objectives.
QLF was measured by computed tomography. […] QLF refers to quantitative lung fibrosis. […] Per CT protocol population: Participants with both baseline and post baseline high resolution computed tomography (HRCT) scans meet evaluability criteria per Imaging Charter.

[4] = Phase 2a clinical trial: pharmacokinetics, sparse sampling, % unbound; type: in vivo, human; conditions: b1346 concentrations; b1380 unbound concentrations
Source text: Overall Summary of Pharmacokinetics. Based on sparse sampling, overall Compound 5 pharmacokinetics and % unbound in IPF were consistent with that of previous studies. […] Overall % unbound was ˜0.3 to 0.5%. Full PK curve will be predicted using population PK model to project AUC0-24 and Cmax.
Pharmacokinetic Evaluation. Sparse PK sampling was utilized for pharmacokinetic evaluation.

[5] = Dose-Dependent Target Engagement (FIG. 12, prior studies); type: in vivo, human
Source text: FIG. 12 through FIG. 33 illustrate various details and results from the clinical trial. […] In FIG. 12, BAL refers to bronchoalveolar lavage; pSmad2/Smad2 refers to ratio of phosphorylated Smad2 to total Smad2; and QD refers to once daily. **** refers to p<0.0001.

[6] = 12 weeks, 40/80/160 mg once daily

## COCCN(CCCCc1ccc2c(n1)NCCC2)CC[C@H](Nc1ncnc2ccccc12)C(=O)O [Compound 5, (S)-4-((2-methoxyethyl) (4-(5,6,7,8-tetrahydro-1,8-naphthyridin-2-yl)butyl)amino)-2-(quinazolin-4-ylamino) butanoic acid]
Lung Col1a1 expression
  lung Col1a1 expression, normalized to DMSO control slices: decreased lung Col1a1 expression substantially
COL1A1 expression; human IPF PCLS (5-7 tissues), 7 days, Compound 5 at 200 nM alone
  reduction of COL1A1 expression: 43%
COL1A1 expression; human IPF PCLS, 3 days, 3G9 ≥400 ng/mL, Compound 5 179 nM, ALK5 inhibitor 1 μM
  lung Col1a1 expression, normalized to DMSO control slices: substantial, statistically significant (p<0.01 vs vehicle) decrease
COL1A1 expression; human IPF PCLS, 7 days, 200 pM to 1 μM
  COL1A1 expression, dose response: dose dependent reduction
COL1A1 expression; human IPF PCLS, 7 days, Compound 5 at 200 nM in combination with nintedanib at 75 nM
  reduction of COL1A1 expression: 55%
COL1A1 expression; human IPF PCLS, 7 days, Compound 5 at 200 nM in combination with pirfenidone at 50 μM
  reduction of COL1A1 expression: 49%
[1]
  Thalf: 20.0 ± 3.6 h
[1]; plasma, read-out: AUC0-24
  AUC(0-t): 19700 ± 10900 ng·h/mL
[1]; plasma, read-out: AUC0-48
  AUC(0-t): 22500 ± 15700 ng·h/mL
[1]; plasma
  Cmax: 1870 ± 1240 ng/mL
  Tmax: 2.9 ± 1 h
[2]; 40 mg, 80 mg, 160 mg once daily, 12 weeks
  tolerability: well tolerated
[2]; 80 mg treatment group, 12 weeks
  increase in FVC relative to baseline: +24.6 mL
[2]; [6]
  severity of most treatment emergent adverse events (TEAE): mild or moderate
  treatment related deaths or drug related serious adverse events (SAE): No treatment related deaths or drug related serious adverse events
[2]; 40/80/160 mg once daily
  plasma concentrations vs dose: generally dose proportional increases
[2]; 67 patients treated, 40/80/160 mg once daily
  patients who completed 12 weeks of treatment with no discontinuations due to adverse events: 97%
[2]; administration of Compound 5 alone, patients
  serious adverse events: did not result in serious adverse events
[2]; change from baseline at 4 and 12 weeks vs. placebo, FIG. 33
  serum biomarkers of collagen synthesis: reduced
[2]; combinations with nintedanib or with pirfenidone, patients
  treatment-emergent adverse events (TEAEs): resulted in treatment-emergent adverse events
[2]; pooled Compound 5 groups
  reduction in FVC decline over 12 weeks versus placebo: approximately 80%
[2]; relative to the placebo group, FIG. 40
  circulating biomarkers integrin beta-6 (ITGB6) and Type III collagen synthesis neoepitope (PRO-C3) levels: reduced
[3]; 40 mg (N = 15)
  Mean Percent Change in QLF Extent From Baseline to Week 12 (Mean Difference): 3.15%
  Median change in QLF Extent From Baseline to Week 12: 1.50%
  QLF extent change Baseline to Week 12: Improvers < −2%, %: (6.6%)
  QLF extent change Baseline to Week 12: Stable [−2, 2%), %: (46.7%)
  QLF extent change Baseline to Week 12: Worse > 2%, %: (46.7%)
[3]; 80 mg (N = 18)
  Mean Percent Change in QLF Extent From Baseline to Week 12 (Mean Difference): 0.7%
  Median change in QLF Extent From Baseline to Week 12: −0.45%
  QLF extent change Baseline to Week 12: Improvers < −2%, %: (11.1%)
  QLF extent change Baseline to Week 12: Stable [−2, 2%), %: (72.2%)
  QLF extent change Baseline to Week 12: Worse > 2%, %: (16.7%)
[3]; 160 mg (N = 14)
  Mean Percent Change in QLF Extent From Baseline to Week 12 (Mean Difference): 0%
  Median change in QLF Extent From Baseline to Week 12: −0.10%
  QLF extent change Baseline to Week 12: Improvers < −2%, %: (28.6%)
  QLF extent change Baseline to Week 12: Stable [−2, 2%), %: (50.0%)
  QLF extent change Baseline to Week 12: Worse > 2%, %: (21.4%)
[3]; 160 mg and 320 mg groups, Week 12
  Progression based on mean change from baseline in QLF: No or limited progression
[3]; 320 mg
  Likelihood of stabilization or improvement of fibrosis (QLF) relative to placebo at Week 24: twice as likely
[3]; 320 mg (n=16), Per CT protocol population, placebo (n=25) 1.46%
  Mean (SD) Change in QLF Extent from Baseline at Week 12: 0.2%
[3]; 320 mg, per CT protocol population, stable −2% to 2%, improved <−2%, placebo 33%
  Patients with stable or improved QLF from baseline at week 24: 71%
[3]; 320 mg, per CT protocol population, worsened >2%, placebo 67%
  Patients with worsened QLF from baseline at week 24: 29%
[3]; 40 to 320 mg, Week 12
  Antifibrotic effect on QLF imaging: Dose-dependent antifibrotic effect
[4]
  Concentrations in IPF participants versus dose: increased approximately proportionally with dose
[5]
  Target engagement: dose dependent
